Data from the supplement of paper PMC10307832.

Assays:
Assay in all cases: relative viability (nuclei count vs DMSO), 5 days (fraction); higher = more cells survive
NCI-H460 = test system: NCI-H460
How it was run: (§1)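 Medians of duplicate plates are given as relative viability. That measure is the nuclei count in treated wells divided by the count in vehicle wells. Counts were taken on 4× images of lung cancer cell lines in 1536-well plates, 5 days after pin-tool dosing the day after seeding with one drug alone or a fixed anchor-drug dose plus five library-drug doses (not always all listed) in √10 steps.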

NCI-H1944 = test system: NCI-H1944
How it was run: as §1

HCC-78 = test system: HCC-78
How it was run: as §1

UMC-11 = test system: UMC-11
How it was run: as §1

NCI-H2405 = test system: NCI-H2405
How it was run: as §1

ABC-1 = test system: ABC-1
How it was run: as §1

NCI-H1755 = test system: NCI-H1755
How it was run: as §1

LOU-NH91 = test system: LOU-NH91
How it was run: as §1

PC-3 [JPC-3] = test system: PC-3 [JPC-3]
How it was run: as §1

ChaGo-K-1 = test system: ChaGo-K-1
How it was run: as §1

LU99A = test system: LU99A
How it was run: as §1

NCI-H3122 = test system: NCI-H3122
How it was run: as §1

CAL-12T = test system: CAL-12T
How it was run: as §1

HCC-366 = test system: HCC-366
How it was run: as §1

NCI-H2087 = test system: NCI-H2087
How it was run: as §1

LC-2-ad = test system: LC-2-ad
How it was run: as §1

RERF-LC-KJ = test system: RERF-LC-KJ
How it was run: as §1

NCI-H1793 = test system: NCI-H1793
How it was run: as §1

NCI-H1651 = test system: NCI-H1651
How it was run: as §1

NCI-H2228 = test system: NCI-H2228
How it was run: as §1

NCI-H2170 = test system: NCI-H2170
How it was run: as §1

NCI-H1395 = test system: NCI-H1395
How it was run: as §1

## Cc1sc2c(c1C)C(c1ccc(Cl)cc1)=N[C@@H](CC(=O)OC(C)(C)C)c1nnc(C)n1-2 [JQ1] + Cc1nc(Nc2ncc(C(=O)Nc3c(C)cccc3Cl)s2)cc(N2CCN(CCO)CC2)n1 [Dasatinib] (partner 0.075 µM)
NCI-H460; first compound 0.04 µM
  relative viability: 0.5
NCI-H460; first compound 0.1265 µM
  relative viability: 0.221
NCI-H460; first compound 0.4 µM
  relative viability: 0.201
NCI-H460; first compound 1.265 µM
  relative viability: 0.171
NCI-H460; first compound 4 µM
  relative viability: 0.075
NCI-H1944; first compound 0.04 µM
  relative viability: 0.202
NCI-H1944; first compound 0.1265 µM
  relative viability: 0.14
NCI-H1944; first compound 0.4 µM
  relative viability: 0.204
NCI-H1944; first compound 1.265 µM
  relative viability: 0.179
NCI-H1944; first compound 4 µM
  relative viability: 0.214
HCC-78; first compound 0.04 µM
  relative viability: 0.364
HCC-78; first compound 0.1265 µM
  relative viability: 0.419
HCC-78; first compound 0.4 µM
  relative viability: 0.366
HCC-78; first compound 1.265 µM
  relative viability: 0.319
HCC-78; first compound 4 µM
  relative viability: 0.248
UMC-11; first compound 0.04 µM
  relative viability: 0.501
UMC-11; first compound 0.1265 µM
  relative viability: 0.43
UMC-11; first compound 0.4 µM
  relative viability: 0.321
UMC-11; first compound 1.265 µM
  relative viability: 0.239
UMC-11; first compound 4 µM
  relative viability: 0.221
NCI-H2405; first compound 0.04 µM
  relative viability: 0.19
NCI-H2405; first compound 0.1265 µM
  relative viability: 0.195
NCI-H2405; first compound 0.4 µM
  relative viability: 0.19
NCI-H2405; first compound 1.265 µM
  relative viability: 0.169
NCI-H2405; first compound 4 µM
  relative viability: 0.147
ABC-1; first compound 0.04 µM
  relative viability: 0.583
ABC-1; first compound 0.1265 µM
  relative viability: 0.413
ABC-1; first compound 0.4 µM
  relative viability: 0.417
ABC-1; first compound 1.265 µM
  relative viability: 0.429
ABC-1; first compound 4 µM
  relative viability: 0.333
NCI-H1755; first compound 0.04 µM
  relative viability: 0.421
NCI-H1755; first compound 0.1265 µM
  relative viability: 0.277
NCI-H1755; first compound 0.4 µM
  relative viability: 0.373
NCI-H1755; first compound 1.265 µM
  relative viability: 0.343
NCI-H1755; first compound 4 µM
  relative viability: 0.2
LOU-NH91; first compound 0.04 µM
  relative viability: 0.549
LOU-NH91; first compound 0.1265 µM
  relative viability: 0.463
LOU-NH91; first compound 0.4 µM
  relative viability: 0.324
LOU-NH91; first compound 1.265 µM
  relative viability: 0.326
LOU-NH91; first compound 4 µM
  relative viability: 0.354
PC-3 [JPC-3]; first compound 0.04 µM
  relative viability: 0.998
PC-3 [JPC-3]; first compound 0.1265 µM
  relative viability: 1.02
PC-3 [JPC-3]; first compound 0.4 µM
  relative viability: 1.16
PC-3 [JPC-3]; first compound 1.265 µM
  relative viability: 0.96
PC-3 [JPC-3]; first compound 4 µM
  relative viability: 0.578
ChaGo-K-1; first compound 0.04 µM
  relative viability: 0.663
ChaGo-K-1; first compound 0.1265 µM
  relative viability: 0.462
ChaGo-K-1; first compound 0.4 µM
  relative viability: 0.44
ChaGo-K-1; first compound 1.265 µM
  relative viability: 0.485
ChaGo-K-1; first compound 4 µM
  relative viability: 0.397
LU99A; first compound 0.04 µM
  relative viability: 0.551
LU99A; first compound 0.1265 µM
  relative viability: 0.378
LU99A; first compound 0.4 µM
  relative viability: 0.603
LU99A; first compound 1.265 µM
  relative viability: 0.207
LU99A; first compound 4 µM
  relative viability: 0.206
NCI-H3122; first compound 0.04 µM
  relative viability: 0.777
NCI-H3122; first compound 0.1265 µM
  relative viability: 0.551
NCI-H3122; first compound 0.4 µM
  relative viability: 0.582
NCI-H3122; first compound 1.265 µM
  relative viability: 0.463
NCI-H3122; first compound 4 µM
  relative viability: 0.209
CAL-12T; first compound 0.04 µM
  relative viability: 0.427
CAL-12T; first compound 0.1265 µM
  relative viability: 0.332
CAL-12T; first compound 0.4 µM
  relative viability: 0.228
CAL-12T; first compound 1.265 µM
  relative viability: 0.144
CAL-12T; first compound 4 µM
  relative viability: 0.213
HCC-366; first compound 0.04 µM
  relative viability: 0.667
HCC-366; first compound 0.4 µM
  relative viability: 0.599
HCC-366; first compound 1.265 µM
  relative viability: 0.368
HCC-366; first compound 4 µM
  relative viability: 0.324
NCI-H2087; first compound 0.04 µM
  relative viability: 0.781
NCI-H2087; first compound 0.1265 µM
  relative viability: 0.774
NCI-H2087; first compound 0.4 µM
  relative viability: 0.466
NCI-H2087; first compound 1.265 µM
  relative viability: 0.414
NCI-H2087; first compound 4 µM
  relative viability: 0.324
LC-2-ad; first compound 0.04 µM
  relative viability: 0.505
LC-2-ad; first compound 0.1265 µM
  relative viability: 0.472
LC-2-ad; first compound 0.4 µM
  relative viability: 0.219
LC-2-ad; first compound 1.265 µM
  relative viability: 0.178
LC-2-ad; first compound 4 µM
  relative viability: 0.191
RERF-LC-KJ; first compound 0.04 µM
  relative viability: 0.763
RERF-LC-KJ; first compound 0.1265 µM
  relative viability: 0.646
RERF-LC-KJ; first compound 0.4 µM
  relative viability: 0.72
RERF-LC-KJ; first compound 1.265 µM
  relative viability: 0.576
RERF-LC-KJ; first compound 4 µM
  relative viability: 0.332
NCI-H1793; first compound 0.04 µM
  relative viability: 0.312
NCI-H1793; first compound 0.1265 µM
  relative viability: 0.345
NCI-H1793; first compound 0.4 µM
  relative viability: 0.435
NCI-H1793; first compound 1.265 µM
  relative viability: 0.385
NCI-H1793; first compound 4 µM
  relative viability: 0.418
NCI-H1651; first compound 0.04 µM
  relative viability: 0.384
NCI-H1651; first compound 0.1265 µM
  relative viability: 0.292
NCI-H1651; first compound 0.4 µM
  relative viability: 0.306
NCI-H1651; first compound 1.265 µM
  relative viability: 0.246
NCI-H1651; first compound 4 µM
  relative viability: 0.221
NCI-H2228; first compound 0.04 µM
  relative viability: 0.416
NCI-H2228; first compound 0.1265 µM
  relative viability: 0.476
NCI-H2228; first compound 0.4 µM
  relative viability: 0.515
NCI-H2228; first compound 1.265 µM
  relative viability: 0.189
NCI-H2228; first compound 4 µM
  relative viability: 0.245
NCI-H2170; first compound 0.04 µM
  relative viability: 0.57
NCI-H2170; first compound 0.1265 µM
  relative viability: 0.47
NCI-H2170; first compound 0.4 µM
  relative viability: 0.392
NCI-H2170; first compound 1.265 µM
  relative viability: 0.334
NCI-H2170; first compound 4 µM
  relative viability: 0.305
NCI-H1395; first compound 0.04 µM
  relative viability: 0.36
NCI-H1395; first compound 0.1265 µM
  relative viability: 0.364
NCI-H1395; first compound 0.4 µM
  relative viability: 0.362
NCI-H1395; first compound 1.265 µM
  relative viability: 0.355
NCI-H1395; first compound 4 µM
  relative viability: 0.388
